Laboratory results reported in ChEMBL document CHEMBL1155463 (J Med Chem, 2010).
Values after ≈ are worked out from the molar mass of the structure shown.

Assays:
[1] = physchem
Description: Ionization constant, pKa by spectrophotometry

[2] = physchem; settings: phosphate buffer, pH 9.9
Description: Thermodynamic solubility in 50 mM aqueous phosphate buffer of pH 9.9 at 22.5 degC by HPLC analysis

[3] = physchem; settings: octanol/water
Description: Lipophilicity, log P of the compound

[4] = physchem; settings: octanol/water, pH 7.4
[5] = physchem; settings: aqueous solution, pH 1
Description: Chemical stability in aqueous solution at pH 1 after 2 hrs

CN(C)CCCCc1ccc(C2(O)COC2)cc1
pKa [1]: 9.6
solubility thermodynamic [2]: 300 mM (≈ 74800 µg/mL)

CN(C)CCCCc1ccc(C2(F)COC2)cc1
pKa [1]: 9.9
logP [3]: 2
solubility thermodynamic [2]: 24 mM (≈ 6030 µg/mL)
logD [4]: -0.5

CN(C)CCCCc1ccc(C2COC2)cc1
pKa [1]: 9.9
remaining at 2 h [5]: 83%
logP [3]: 2.4
solubility thermodynamic [2]: 17 mM (≈ 3970 µg/mL)
logD [4]: -0.1

CN(C)CCCCc1ccc(C(C)(C)C)cc1
logP [3]: 5
solubility thermodynamic [2]: < 0.004 mM

CN(C)CCCCc1ccc(C2(C)COC2)cc1
pKa [1]: 9.9
logP [3]: 3.3
solubility thermodynamic [2]: 18 mM (≈ 4450 µg/mL)
logD [4]: 0.8

CN(C)CCC(C)(C)Cc1ccc(C(C)(C)C)cc1
pKa [1]: 9.5

CN(C)CCC1(Cc2ccc(C(C)(C)C)cc2)COC1
pKa [1]: 9.2
logP [3]: 3.5
solubility thermodynamic [2]: 15 mM (≈ 4130 µg/mL)
logD [4]: 1.7

CN(C)CC(C)(C)CCc1ccc(C(C)(C)C)cc1
solubility thermodynamic [2]: 0.004 mM (≈ 1.05 µg/mL)

c1cc2c(cc1CN1CCCCC1)OCO2
pKa [1]: 9.6
solubility thermodynamic [2]: 2.1 mM (≈ 460 µg/mL)

CC1(C)CCCN1Cc1ccc2c(c1)OCO2
pKa [1]: 10
logP [3]: 3.5
solubility thermodynamic [2]: 0.18 mM (≈ 42 µg/mL)
logD [4]: 0.9

CCc1ccc(CCCCN(C)C)cc1
pKa [1]: 9.9
logP [3]: 4.3
solubility thermodynamic [2]: 0.25 mM (≈ 51.3 µg/mL)
logD [4]: 1.8

CN(C)CCCC(C)(C)c1ccc(C(C)(C)C)cc1
solubility thermodynamic [2]: < 0.004 mM

c1cc2c(cc1CN1CCCC1)OCO2
pKa [1]: 9.7
logP [3]: 2.5
solubility thermodynamic [2]: 2.8 mM (≈ 575 µg/mL)
logD [4]: 0.2

c1cc2c(cc1CN1CCC1)OCO2
pKa [1]: 9.5
logP [3]: 2.1
solubility thermodynamic [2]: 13 mM (≈ 2490 µg/mL)
logD [4]: -0.1

O=C1CCCCN1Cc1ccc2c(c1)OCO2
logP [3]: 1.6
solubility thermodynamic [2]: 27 mM (≈ 6300 µg/mL)
logD [4]: 1.6

c1cc2c(cc1CN1CCOCC1)OCO2
pKa [1]: 7
logP [3]: 1.6
solubility thermodynamic [2]: 36 mM (≈ 7970 µg/mL)
logD [4]: 1.5

CN(C)C1(CCCc2ccc(C(C)(C)C)cc2)COC1
pKa [1]: 7.2
logP [3]: 3.6
solubility thermodynamic [2]: 0.21 mM (≈ 57.8 µg/mL)
logD [4]: 3.3

CC1(C)CCN1Cc1ccc2c(c1)OCO2
pKa [1]: 10.1
logP [3]: 2.8
solubility thermodynamic [2]: 1.7 mM (≈ 373 µg/mL)
logD [4]: 0.1

c1cc2c(cc1CN1CCC13COC3)OCO2
pKa [1]: 6.2
logP [3]: 1.3
solubility thermodynamic [2]: 6 mM (≈ 1400 µg/mL)
logD [4]: 1.3

O=C1CCN1Cc1ccc2c(c1)OCO2
logP [3]: 1.1
solubility thermodynamic [2]: 10 mM (≈ 2050 µg/mL)
logD [4]: 1.1

CC1(C)CN(Cc2ccc3c(c2)OCO3)C1
pKa [1]: 9.6
logP [3]: 3.1
solubility thermodynamic [2]: 1.3 mM (≈ 285 µg/mL)
logD [4]: 0.8

c1cc2c(cc1CN1CC3(COC3)C1)OCO2
pKa [1]: 8
logP [3]: 1.2
solubility thermodynamic [2]: 100 mM (≈ 23300 µg/mL)
logD [4]: 0.5

O=C1CCCN1Cc1ccc2c(c1)OCO2
logP [3]: 1.2
solubility thermodynamic [2]: 6.8 mM (≈ 1490 µg/mL)
logD [4]: 1.2

CC1(C)CCN(Cc2ccc3c(c2)OCO3)C1
pKa [1]: 9.7
logP [3]: 3.7
solubility thermodynamic [2]: 0.17 mM (≈ 39.7 µg/mL)
logD [4]: 1.4

c1cc2c(cc1CN1CCC3(COC3)C1)OCO2
pKa [1]: 8.1
logP [3]: 1.5
solubility thermodynamic [2]: 3 mM (≈ 742 µg/mL)
logD [4]: 0.7

O=C1CCN(Cc2ccc3c(c2)OCO3)C1
pKa [1]: 6.1
logP [3]: -0.1
solubility thermodynamic [2]: 19 mM (≈ 4170 µg/mL)
logD [4]: 0.1

CC1(C)CCCCN1Cc1ccc2c(c1)OCO2
pKa [1]: 10.2
logP [3]: 3.9
solubility thermodynamic [2]: 0.12 mM (≈ 29.7 µg/mL)
logD [4]: 1.1

c1cc2c(cc1CN1CCCCC13COC3)OCO2
pKa [1]: 7
logP [3]: 2.4
solubility thermodynamic [2]: 2.9 mM (≈ 758 µg/mL)
logD [4]: 2.2

CC1(C)CCCN(Cc2ccc3c(c2)OCO3)C1
pKa [1]: 9.4
logP [3]: 4.3
solubility thermodynamic [2]: 0.053 mM (≈ 13.1 µg/mL)
logD [4]: 2.3

CN(C)CCCC1(c2ccc(C(C)(C)C)cc2)COC1
pKa [1]: 9.6
logP [3]: 3.9
solubility thermodynamic [2]: 0.98 mM (≈ 270 µg/mL)
logD [4]: 1.7

c1cc2c(cc1CN1CCCC13COC3)OCO2
pKa [1]: 6.3
logP [3]: 1.9
solubility thermodynamic [2]: 8.5 mM (≈ 2100 µg/mL)
logD [4]: 1.9

c1cc2c(cc1CN1CCCC3(COC3)C1)OCO2
pKa [1]: 7.9
logP [3]: 2.3
solubility thermodynamic [2]: 7.7 mM (≈ 2010 µg/mL)
logD [4]: 1.7

O=C1CCCN(Cc2ccc3c(c2)OCO3)C1
pKa [1]: 7.6
logP [3]: 0.5
solubility thermodynamic [2]: 9 mM (≈ 2100 µg/mL)
logD [4]: 0.1

CC1(C)CCN(Cc2ccc3c(c2)OCO3)CC1
pKa [1]: 9.5
logP [3]: 4.4
solubility thermodynamic [2]: 0.89 mM (≈ 220 µg/mL)
logD [4]: 2.3

c1cc2c(cc1CN1CCC3(CC1)COC3)OCO2
pKa [1]: 8.3
logP [3]: 2
solubility thermodynamic [2]: 5.4 mM (≈ 1410 µg/mL)
logD [4]: 1

c1cc2c(cc1CN1CC3CC(C1)O3)OCO2
pKa [1]: 7.1
solubility thermodynamic [2]: > 11 mM
